Results published in patent US9388215B2, “Compositions and methods of using islet neogenesis peptides and analogs thereof” (SHENZHEN HIGHTIDE BIOPHARMACEUTICAL, LTD., priority 2013, dated 2016).
Each block holds one substance with its values, some of them ahead of it.

Tests used:
[1] = Peptide stability in mouse plasma; format: in vitro ADME; settings: 100 μg/mL, 37° C.; FIG. 3, 5, 14
Method: (§1) The stability of peptides was also tested in mouse and human plasma. Briefly, a certain amount of peptides and eucatropine powder (positive control) was accurately weighed. Test compounds were dissolved in 50% methanol-water solution and diluted to 20 mg/mL, and eucatropine was dissolved in dimethylsulfoxide (DMSO) and diluted to 10 mM, as a stock solution. Eucatropine stock solution was diluted to 0.2 mM with DMSO as a working solution. A stop reagent was prepared containing 200 ng/mL midazolam and tolbutamide in acetonitrile. A volume of 300 μL of stop solution was added to each well of a 96-well deep-well plate placed on ice beforehand.
(§2) For the stability studies, peptides and eucatropine were spiked into plasma respectively, mixed well, and then 100 μL of each mixture solution was transferred into the pre-cooled stop reagent as 0 time point sample. The remaining mixtures were incubated in a 37° C. water bath with shaking at 100 rpm (n=2). The final incubation concentration was 1 for eucatropine and 100 μg/mL for all test compounds.
(§3) At desired time points, 100 μL of incubation mixture was transferred to the stop reagent to precipitate proteins. Samples were vortexed and centrifuged at RCF 5000×g for 10 minutes, and supernatant was transferred to a test plate. The samples were analyzed by LC-MS/MS.
(§4) Slope was calculated by plotting the natural logarithm of the percentage of remaining amount of test compounds and time, and T1/2 was calculated in accordance with the following formula.
For stability in mouse plasma, the incubation time was 0, 5, 15, 30 and 60 min for Peptide 1 and eucatropine; 0, 15, 30, 60, 120, 240 and 480 min for Peptide 12, Peptide 16 and Peptide 29.
In another stability study in mouse plasma, the incubation time was 0, 30, 60 and 120 min for Peptide 2 and eucatropine; 0, 30, 60, 120, 240 and 960 min for Peptide 52 and Peptide 54.
as §1, with “tested in rat, mouse and” for “tested in mouse and”
as §2, with “was 1 μM for eucatropine” for “was 1 for eucatropine”
For stability in mouse plasma, the incubation time was 0, 15, 30, 60 and 120 min for Peptide 1 and eucatropine; 0, 15, 30, 60, 120, and 240 min for Peptide 31.

[2] = Peptide stability in human plasma; format: in vitro ADME; settings: 100 μg/mL, 37° C.; FIG. 4, 15
Method: as §1, §2, §3, §4
For stability in human plasma, the incubation time was 0, 30, 60 and 120 min for Peptide 1, Peptide 12, Peptide 16 and eucatropine.
The stability of peptides was also tested in rat, mouse and human plasma. Briefly, a certain amount of peptides and eucatropine powder (positive control) was accurately weighed. Test compounds were dissolved in 50% methanol-water solution and diluted to 20 mg/mL, and eucatropine was dissolved in dimethylsulfoxide (DMSO) and diluted to 10 mM, as a stock solution. Eucatropine stock solution was diluted to 0.2 mM with DMSO as a working solution. […]

[3] = Peptide stability in rat plasma; format: in vitro ADME; settings: 100 μg/mL, 37° C.; FIG. 12, 13
Method: as §1, with “tested in rat, mouse and” for “tested in mouse and”
as §2, with “was 1 μM for eucatropine” for “was 1 for eucatropine”
as §3, §4
For stability in rat plasma, the incubation time was 0, 15, 30, 60 and 120 min for Peptide 1 and eucatropine, and 0, 15, 30, 60, 120, and 240 min for Peptide 12, Peptide 16, Peptide 29 and Peptide 31.
In another stability study in rat plasma, the incubation time was 0, 30, 60 120 and 240 min for Peptide 2, Peptide 52, Peptide 64 and eucatropine.

[4] = Pharmacokinetics in SD rats after single subcutaneous dose (Example X); format: in vivo, rat; settings: sc, 25 mg/kg
Method: After 7 days acclimation, a total of 15 male Sprague-Dawley (SD) rats (body weight: 230 to 270 g) in good health from Sino-British SIPPR/BK Lab Animal Ltd, Shanghai, were used in the study. All peptides, Peptide 1, Peptide 12, Peptide 16, Peptide 29 or Peptide 31, were dissolved in sterile normal saline respectively to yield the desired final concentrations and were administered via single subcutaneous (sc) dose.
Three animals in each group were used for blood collection at the time point of 5 min, 15 min, 30 min, 1 h, 2 h, 4 h, 6 h, 8 h and 24 h post-dose. Blood samples (approximately 400 μL) were collected and placed into tubes containing EDTA-K2 (dipotassium ethylene diamine tetraacetic acid) and centrifuged at 8000 rpm for 6 minutes at 4° C. to separate plasma from the samples. The resulting plasma was stored frozen at −80° C. until being analyzed.
Plasma concentrations of peptides were determined using tandem mass spectrometry (LC-MS/MS) analysis. A non-compartmental module of WinNonlin® Professional 5.2 (Pharsight; St. Louis Mo.) was used to calculate PK parameters. AUC(0-t) represents area under the curve from the time of dosing to the time of the last observation, the AUC(0-∞) represents area under the curve from the time of dosing to infinity, and the Cmax represents maximum concentration detected.

[5] = format: physicochemical; settings: pH 7.4
Method: Peptide stability in buffers was tested for INGAP-PP and selected analogs. 10 mg/mL of Peptide 1, Peptide 12, Peptide 16, Peptide 29 or Peptide 31 was dissolved in isotonic buffers with pH ranging from 4.0 to 8.0. […] Peptide 12 and Peptide 29 were stable in an isotonic phosphate buffer (pH 7.4) for more than 90 days at 4° C. (there was no sign of degradation at 90 days sample check point), and 60 days at 25° C.

pancreatic islets = test: Glucose-stimulated insulin secretion (GSIS) of isolated islets; format: cell-based, rat; settings: 12.0 mM glucose; 10 μg/mL peptide or 100 nM GLP-1; 60 min; FIG. 8
Method: The pancreases were procured from male adult Sprague-Dawley (SD) rats. After 7 days acclimation, the animals were sacrificed by cervical dislocation and the entire pancreas was removed and digested with collagenase to isolate islets. After digestion, islets were maintained at 37° C. in RPMI 1640 (Carlsbad Calif., USA) pH 7.4, containing 10% (v/v) fetal calf serum, 1% penicillin/streptomycin, and 10 mM glucose in a humid atmosphere (5% CO2/95% O2), without the addition of any compound (control), or with the addition of 100 nM glucagon like peptide-1 (GLP-1); or 10 μg/mL Peptide 1, Peptide 12, or Peptide 16, as summarized in Table 4 below. Cultured islets were rinsed in Krebs-Ringer bicarbonate buffer (KRB), pH 7.4, previously gassed with a mixture of CO2/O2 (5/95%), and pre-incubated in 1.0 ml of KRB containing 0.5% (w/v) BSA and 1.5 mM glucose at 37° C. for 45 min. After this period, groups of 5 islets were incubated in 0.6 ml KRB with the addition of 1.5 or 12.0 mM glucose, with or without the addition of peptides for 60 min. At the end of the incubation period, aliquots of the medium were collected for insulin quantitation.

[6] = Pharmacokinetics in mouse, subcutaneous bolus; format: in vivo; settings: male, C57BL/6, mouse, in vivo, sc, 25 mg/kg
Method: (§5) After 7 days acclimation, male Sprague-Dawley (SD) rats weighing 210-250 g, or male C57BL/6 mice, weighing 19-24 g, in good health were used in the study. Peptide 1, Peptide 12 and Peptide 16 were dissolved in sterile normal saline and then they were injected via subcutaneous (sc) bolus or intravenous (iv) bolus at the dose level of 25 mg/kg. Three animals in each group were used for blood collection at the time point of 5 min, 15 min, 30 min, 1 h, 2 h, 4 h, 6 h, 8 h and 24 h post-dose. Blood samples (approximately 400 μL) were collected and placed into tubes containing EDTA-K2 and centrifuged at 8000 rpm for 6 minutes at 4° C. to separate plasma from the samples. The resulting plasma was stored frozen at −80° C. until being analyzed. Plasma concentrations of peptides were determined using tandem mass spectrometry (LC-MS/MS) analysis. A non-compartmental module of WinNonlin® Professional 5.2 (Pharsight; St. Louis Mo.), was used to calculate PK parameters. The abbreviation AUC(0-t) represents area under the curve from the time of dosing to the time of the last observation, the AUC(0-∞) represents area under the curve from the time of dosing to infinity, and the Cmax represents maximum concentration detected.

[7] = Pharmacokinetics in rat, subcutaneous bolus (Example VII); format: in vivo; settings: male, Sprague-Dawley, rat, in vivo, sc, 25 mg/kg
Method: as §5

[8] = Pharmacokinetics in rat, intravenous bolus; format: in vivo; settings: male, Sprague-Dawley, rat, in vivo, iv, 25 mg/kg
Method: as §5

normal C57BL/6J mice = test: Induction of extra islet insulin positive β cell clusters (EIC) in normal C57BL/6J mice; format: in vivo, mouse; settings: analog 5 mg/kg vs INGAP-PP 50 mg/kg, 10 days
Method: After a 1-week acclimation, female C57BL/6J mice were randomly divided into 6 groups (n=5 per group). The control group received 10 mL/kg sterile normal saline via subcutaneous injection for 10 consecutive days. The other five groups received INGAP-PP (Peptide 1) or INGAP-PP analogs Peptide 12, Peptide 16, Peptide 29 or Peptide 31 at a dose of 50 mg/kg or 5 mg/kg per day, respectively, for the same period. On day 11, the pancreas was removed from each animal, cleared of fat and lymph nodes, weighed, and fixed in 10% neutral buffered formalin (NBF) for no longer than 24 hours before processing for morphometric analysis.
Immunohistochemistry analysis was used to assess the islet neogenic activities of peptides by measuring the number and area of extra islet insulin positive β cell clusters (EIC) of pancreatic tissues harvested from each individual group post 10 day treatment. EIC is indicative of islet neogenesis, as previously described by Lipsett and Finegood (Diabetes 51:1834-1841 (2002)).

[9] = Peptide concentration in plasma and pancreas 30 min post dose; format: in vivo, rat; settings: male, Sprague-Dawley, rat, in vivo, sc, 25 mg/kg, Peptide concentration
Method: To further characterize the pharmacokinetic (PK) properties of peptides, peptide concentration in pancreas—the target organ, was determined 30 min post dose. Briefly, INGAP-PP (Peptide 1), Peptide 12, or Peptide 31 was dissolved in sterile normal saline and then was administered via subcutaneous (sc) bolus at the dose level of 25 mg/kg to male Sprague-Dawley (SD) rats. Five animals in each group were used for blood and pancreas collection at the time point of 30 min post-dose. Blood samples (approximately 400 μL) were collected and placed into tubes containing EDTA-K2 and centrifuged at 8000 rpm for 6 minutes at 4° C. to separate plasma from the samples. After blood extraction and animal sacrifice, the pancreas was removed immediately from each animal, cleared of fat and lymph nodes, weighed, and placed into 5 fold volume of ice cold sterile normal saline with protease inhibitor cocktail (Merck Millipore, catalogue #539137) to homogenize with a homogenizer.
The peptide concentration of the plasma and pancreatic homogenate was determined immediately using tandem mass spectrometry (LC-MS/MS) analysis and the results are presented in Table 8.

[10] = male, Sprague-Dawley, rat, in vivo

AUC(0-t) ([4]; plasma, male Sprague-Dawley rat, subcutaneous, read-out: AUC(0-t)): 14400 ± 1010 ng·h/mL | AUC(0-inf) ([4]; plasma, male Sprague-Dawley rat, subcutaneous, read-out: AUC(0-∞)): 14400 ± 1000 ng·h/mL | Cmax ([4]; plasma, male Sprague-Dawley rat, subcutaneous, read-out: Cmax): 16300 ± 2520 ng/mL | time stable in isotonic phosphate buffer (pH 7.4) at 4° C. [5]: more than 90 days | time stable in isotonic phosphate buffer (pH 7.4) at 25° C. [5]: 60 days
Substance: Ac-IGLHDPSHGTLPAGS-NH2 [Peptide 29, Ac-IGLHDPSHGTLPAGS-NH2]
stability in mouse plasma [1]: exhibited good stability in mouse plasma and were more stable than INGAP-PP | stability in human plasma [2]: exhibited good stability in human plasma and were significantly more stable than INGAP-PP | stability in rat plasma [3]: exhibited good stability in rat plasma and were more stable than INGAP-PP

AUC(0-inf) [6]: 5890 ng·h/mL | AUC(0-t) [6]: 5870 ng·h/mL | Cmax [6]: 11600 ng/mL | AUC(0-inf) [7]: 8480 ng·h/mL | AUC(0-t) [7]: 8420 ng·h/mL | Cmax [7]: 14000 ng/mL | AUC(0-inf) [8]: 12600 ng·h/mL | AUC(0-t) [8]: 12600 ng·h/mL | Cmax [8]: 44300 ng/mL | AUC(0-inf) [4, 10]: 11200 ± 1210 ng·h/mL | AUC(0-t) [4, 10]: 11100 ± 1370 ng·h/mL | Cmax [4, 10]: 21400 ± 1350 ng/mL | level at 0.5 h ([9]; Pancreas): 877 ± 261 ng/mL | level at 0.5 h ([9]; Plasma): 5370 ± 981 ng/mL | time stable in isotonic phosphate buffer (pH 7.4) at 4° C. [5]: more than 90 days | time stable in isotonic phosphate buffer (pH 7.4) at 25° C. [5]: 60 days
Substance: Ac-IGLHDPSHGTLPAGS-OH [Peptide 12, Ac-IGLHDPSHGTLPAGS-OH]
glucose-stimulated insulin release vs islets without peptide (pancreatic islets): released significantly more insulin than those cultured without the addition of peptides | islet neogenesis efficacy relative to INGAP-PP (normal C57BL/6J mice): comparable or improved efficacy was achieved at a dose one tenth of INGAP-PP
